In PMC9016704, “Dichlorophenylpyridine-Based Molecules Inhibit Furin through an Induced-Fit Mechanism” (ACS Chemical Biology, 2022):
Read-outs that look alike come from different tables or passages of the source. Non-standard residues stand in square brackets, D forms with d. Residues, ends and D or L forms follow the SMILES beside them. *: point of attachment. AMC = Cc1cc(=O)oc2cc(N*)ccc12; pGlu = O=C1CC[C@@H](C(=O)O)N1

Legend:
furin [1] = target: T1, furin (Homo sapiens, UniProt P09958); experiment: Enzyme kinetic assay with fluorogenic substrate pERTKR-AMC; format: biochemical; parameters: made in house
Procedure: To determine the inhibition mode for compound 1, we performed enzyme kinetic assays with the fluorogenic PC substrate pyr-ERTKR-7-amino-4-methylcoumarin (pERTKR-AMC).
Additionally, internal calibration was performed using the monoisotopic peak of the respective […]
MALDI-TOF data, processed with flexAnalysis or MALDI Pharma Pulse, were exported as a comma delimited (.csv) file. Datasets were further processed with either GraphPad Prism (v9.00; GraphPad Software, La Jolla, CA) or in-house laboratory information management system (LIMS) software. Furin activity was tracked by analyzing the measured intensity for the enzymatic product as well as for the corresponding internal standard. Average control values were calculated and set to 100% activity (high controls) and 0% activity (low controls) while the response values of compound-containing wells were normalized against the controls and expressed as percentage of control (PoC). Determination of compound potencies was obtained by fitting the dose-response data to a four-parameter logistical equation.
Enzyme kinetics. Enzyme kinetic measurements were performed in 100 mM HEPES pH 7.5, 1 mM CaCl2, 0.01% (w/v) BSA, 0.001% (v/v) Tween20 with the fluorogenic substrate pyr-ERTKR-7-amino-4-methylcoumarin (pERTKR-AMC, Bachem) and 0.5 nM furin at 24°C. The reactions (100 µl) were initiated by addition of the substrate in 96-well black half area plates (Corning), pre-incubated for 30 min at 24°C and measured for 40 min in a 96-well plate reader (Tecan Infinite 200) at excitation and emission wavelengths of 380 nm and 460 nm, respectively. The Km value of pERTKR-AMC with furin was determined with 1:2 serial dilution series of the substrate from 100 µM to 0.78 µM. To investigate the inhibition mode of 1 with furin, 1:2 serial inhibitor dilution series were prepared in the concentration range between 100 nM and 0.78 nM and the reaction velocity was determined in presence of 4.4 µM, 8.9 µM and 13.3 µM pERTKR-AMC. Enzyme kinetic data were evaluated with GraphPad Prism. Km was calculated with the prebuild “Michaelis-Menten” model. […]
Target sequence in this assay (P09958 108-574 limits assumed): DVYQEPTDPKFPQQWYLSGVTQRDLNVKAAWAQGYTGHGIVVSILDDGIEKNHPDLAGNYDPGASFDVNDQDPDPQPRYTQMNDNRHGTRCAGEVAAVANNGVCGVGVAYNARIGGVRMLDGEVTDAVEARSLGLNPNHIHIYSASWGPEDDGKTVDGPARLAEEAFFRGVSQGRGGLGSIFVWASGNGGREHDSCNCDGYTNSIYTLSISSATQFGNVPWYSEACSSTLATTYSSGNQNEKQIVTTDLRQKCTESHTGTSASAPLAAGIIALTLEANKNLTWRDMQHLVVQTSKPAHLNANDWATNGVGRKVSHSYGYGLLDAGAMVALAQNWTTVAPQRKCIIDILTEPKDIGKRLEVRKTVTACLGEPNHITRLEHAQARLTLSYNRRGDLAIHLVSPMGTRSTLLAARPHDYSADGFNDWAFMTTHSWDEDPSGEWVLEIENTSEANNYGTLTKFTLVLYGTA

furin [2] = system: furin; parameters: method as in earlier work; settings: enzyme kinetics measurements; cited from earlier work
furin [3] = system: furin; parameters: method as in earlier work; settings: cell-based inhibition assays; cited from earlier work
[4] = system: Total TGFβ production in the lung; parameters: method as in earlier work; settings: cited from earlier work; for Total TGFβ production in the lung reduced by: 10 mg/kg of body weight; for bioavailability: bleomycin-induced lung fibrosis mouse model
furin [5] = target: T1, furin; experiment: MALDI-TOF-MS-based furin activity assay, TGFβ-derived substrate; format: biochemical; parameters: made in house
Target sequence in this assay (P09958 108-574 limits assumed): as above

furin [6] = target: T1, furin; experiment: Protein thermostability measurement by nanoDSF; format: binding; parameters: made in house; settings: for Tm #1 / Tm #2 / Tm Mean: furin-inhibitor complex; for Tm #1: replicate #1; for Tm #2: replicate #2; for Tm Mean: ligand-free furin 57.7 ± 0.1; for ΔTm: gain versus ligand-free furin
Excerpt: Interactions of inhibitors with furin increased the structural stability of the protease–inhibitor complexes compared with the ligand-free protease, which was indicated by an increase in the melting temperature (Tm).[23] We investigated the impact of the (3,5-dichlorophenyl)pyridine-based compounds on the structural stability of furin using differential scanning fluorimetry (nanoDSF[24]). […] The gain in Tm correlated well with the measured pIC50 (i.e., −log10(IC50)) values (Figure 2B), as reported for substrate-like inhibitors.[10],[25] […]
Protein thermostability measurement by nanoDSF. The thermostablity of furin-inhibitor complexes was further assessed by nanoDSF.16 In nanoDSF, protein unfolding was monitored by the change of the intrinsic fluorescence of the protein, mainly from tryptophan and tyrosine residues in the protein. 10 ul 0.2 mg mL-1 (3.8 µM) protein solutions (10mM Hepes/NaOH pH 7.5; 100 mM NaCl; 2 mM CaCl2) were loaded into nanoDSF grade standard capillaries (NanoTemper Technologies). The samples were heated up with a ramp rate of 1 °C min-1 over a temperature range of 20-95 °C. The thermal unfolding profiles of the proteins were recorded using the Prometheus NT.48 instrument (NanoTemper Technologies). Measurements were performed in duplicate. Unfolding transition temperatures (Tm) were automatically determined by the instrument software.
Target sequence in this assay (P09958 108-574 limits assumed): as above

furin [7] = target: T1, furin; experiment: biochemical
Target sequence in this assay (P09958 108-794): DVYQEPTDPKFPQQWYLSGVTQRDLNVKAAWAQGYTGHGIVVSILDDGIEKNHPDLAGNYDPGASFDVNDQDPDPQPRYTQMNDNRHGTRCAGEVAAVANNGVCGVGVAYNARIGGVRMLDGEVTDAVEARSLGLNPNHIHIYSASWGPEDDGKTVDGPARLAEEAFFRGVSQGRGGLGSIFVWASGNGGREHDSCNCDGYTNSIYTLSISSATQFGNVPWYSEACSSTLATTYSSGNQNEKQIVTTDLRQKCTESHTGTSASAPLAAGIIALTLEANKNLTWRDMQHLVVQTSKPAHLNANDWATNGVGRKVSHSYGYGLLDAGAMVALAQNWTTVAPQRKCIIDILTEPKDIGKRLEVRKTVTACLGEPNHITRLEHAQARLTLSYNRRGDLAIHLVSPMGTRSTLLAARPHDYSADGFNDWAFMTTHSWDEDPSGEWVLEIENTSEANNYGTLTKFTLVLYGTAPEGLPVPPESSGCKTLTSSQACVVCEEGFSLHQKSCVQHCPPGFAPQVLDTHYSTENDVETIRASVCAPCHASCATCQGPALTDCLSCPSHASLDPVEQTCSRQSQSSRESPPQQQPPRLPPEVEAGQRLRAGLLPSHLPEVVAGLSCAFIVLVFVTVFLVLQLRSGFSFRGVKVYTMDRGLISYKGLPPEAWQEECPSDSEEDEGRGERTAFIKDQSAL

furin [8] = target: T1, furin; experiment: Surface plasmon resonance binding to immobilized furin; settings: for koff: read-out: koff Mean ± SD; for kon: read-out: kon Mean ± SD; for residence time: reciprocal of the mean koff, read-out: residence time τ
Procedure: As the (3,5-dichlorophenyl)pyridine derivatives bind tightly to furin, we used single-cycle kinetic experiments to determine their off-rates.[18] […]
SPR-experiments. 1, 3 and hexa-D-Arginine 14 were dissolved to a 10 mM stock solution in DMSO. This stock solution was initially diluted 100-fold in running buffer (10 mM HEPES pH 7.5, 100 mM NaCl, 2 mM CaCl2; 0.05% Tween; 1% DMSO) to a concentration of 100 µM and 1% DMSO. The stock solution in 1% DMSO was then further diluted in running buffer with […]
Furin was immobilized onto a NTA-chip after pre-loading with Ni2+ using standard procedures.
Immobilization levels of furin were in the range of 6000-6500 RU. Binding studies were performed with a Biacore T200 SPR system at 25°C in 10 mM HEPES pH 7.5, 100 mM NaCl, 2 mM CaCl2; 0.05% (v/v) Tween 20, and 1% (v/v) DMSO. Inhibitor 1 and 3 concentrations were […]
and 500 nM. Binding studies for 1 and 3 were performed in the single-cycle kinetic mode using […]
Target sequence in this assay (P09958 108-794): as above

furin [9] = system: furin; parameters: method as in PMID 10958789; settings: read-out: IC50 (literature); cited from earlier work
[10] = TGFβ-derived substrate 2.5 µM, 0.02 nM furin, read-out: IC50 Mean ± SD
[11] = 25°C, hexa-D-Arg: multicycle, poor curve fit, read-out: KD Mean ± SD
[12] = TGFβ substrate, replicate #1, read-out: IC50 #1
[13] = TGFβ substrate, replicate #2, read-out: IC50 #2
[14] = TGFβ substrate, replicate #3, read-out: IC50 #3
[15] = injected intraperitoneally, mice

IC50 (furin [5]; [10])	Molecule	IC50 (furin [2])	IC50 (furin [3])	bioavailability ([4]; in words)	Tm #1 (furin [6])	Tm #2 (furin [6])	Tm Mean (furin [6])	ΔTm (furin [6])	Kd (furin [8]; [11])	Kd (furin [8]; replicate #1, read-out: KD #1)	Kd (furin [8]; replicate #2, read-out: KD #2)	Kd (furin [8]; replicate #3, read-out: KD #3)	also measured
1.3 nM	CC(=O)NCC1CCN(Cc2cc(Oc3cnc(N4CCN(CCC(C)C(=O)O)CC4)nc3)nc(-c3cc(Cl)cc(Cl)c3)c2)CC1 (centres unmarked) [Inhibitor 2]	0.5 nM	5 nM	comparably high	69.4 °C	69.2 °C	69.3 °C	11.6 °C					Total TGFβ production in the lung reduced by ([4]; oral, mice): 75%; oral availability ([4]; mice, in words): orally available
78 nM	CN1CCN(c2ncc(Oc3cc(CN4CCC(OCC(=O)O)C4)cc(-c4cc(Cl)cc(Cl)c4)n3)cn2)CC1 (centres unmarked) [Inhibitor 5]	13 nM	630 nM		61.8 °C	61.8 °C	61.8 °C	4.0 °C					
2.6 nM	CC(=O)NCC1CCN(Cc2cc(Oc3ccc(N4CCN(CCC(=O)O)CC4)nc3)nc(-c3cc(Cl)cc(Cl)c3)c2)CC1 [Inhibitor 4]	0.25 nM	25.1 nM	comparably high	68.3 °C	68.2 °C	68.3 °C	10.5 °C					Total TGFβ production in the lung reduced by [4, 15]: 69%

The remaining lines, values behind:

Molecule	IC50 (furin [5]; [10])	IC50 (furin [2])	IC50 (furin [3])	bioavailability ([4]; in words)	Tm #1 (furin [6])	Tm #2 (furin [6])	Tm Mean (furin [6])	ΔTm (furin [6])	Kd (furin [8]; [11])	Kd (furin [8]; replicate #1, read-out: KD #1)	Kd (furin [8]; replicate #2, read-out: KD #2)	Kd (furin [8]; replicate #3, read-out: KD #3)	also measured
Cc1cc(=O)oc2cc(NC(=O)[C@H](CCCNC(=N)N)NC(=O)[C@H](CCCCN)NC(=O)[C@@H](NC(=O)[C@H](CCCNC(=N)N)NC(=O)[C@@H]3CCC(=O)N3)[C@@H](C)O)ccc12 [pERTKR-AMC, pyr-ERTKR-7-amino-4-methylcoumarin] ([pGlu]RTKR-{AMC})													Km (furin [1]; Km of substrate pERTKR-AMC with furin): 9.6 µM
AQHLQSSRHRRALDTNY [TGFβ, peptide substrate surrogate derived from TGFβ]													Km (furin [5]; assay-specific apparent Km of the TGFβ-derived peptide substrate, read-out: Km,app): 1.8 µM
COCCN1CCN(c2ccc(Oc3cc(CN4CCC(CNC(C)=O)CC4)cc(-c4cc(Cl)cc(Cl)c4)n3)cn2)CC1 [Inhibitor 1]	2.3 nM	1.3 nM	0.8 nM		68.5 °C	68.4 °C	68.4 °C	10.8 °C	28 ± 13 nM	48.7 nM	24.7 nM	26.1 nM	IC50 (furin [7]; IC50 #1): 1 nM; IC50 (furin [7]; IC50 #2): 1.1 nM; koff (furin [8]; 25°C, single-cycle kinetic): 0.00018 s⁻¹; kon (furin [8]; 25°C, single-cycle kinetic): 4600 ± 2500 M⁻¹ s⁻¹; residence time (furin [8]): 92 min; kon #1 (furin [8]; replicate #1): 4531 [Ms]-1; kon #2 (furin [8]; replicate #2): 3563 [Ms]-1; kon #3 (furin [8]; replicate #3): 8463 [Ms]-1; IC50 (furin [5]; [12]): 2.6 nM; IC50 (furin [5]; [13]): 2.4 nM; IC50 (furin [5]; [14]): 2 nM; inhibition mode (furin [1]; Dixon plot, pERTKR-AMC 4.4-13.3 μM): competitive; Ki (furin [1]; competitive model, pERTKR-AMC 4.4, 8.9 and 13.3 µM, 0.5 nM furin): 3.8 ± 0.8 nM
N=C(N)NCCC[C@@H](N)C(=O)N[C@H](CCCNC(=N)N)C(=O)N[C@H](CCCNC(=N)N)C(=O)N[C@H](CCCNC(=N)N)C(=O)N[C@H](CCCNC(=N)N)C(=O)N[C@H](CCCNC(=N)N)C(N)=O [hexa-D-arginine, reference compound]					59.3 °C	59.2 °C	59.3 °C	1.6 °C	530 ± 320 nM	437 nM	966 nM	200 nM	IC50 (furin [7]; IC50 Mean): 126 nM; koff Mean ± SD (furin [8]; 25°C, single-cycle kinetic): fast off-rate; IC50 (furin [9]): 106 nM; IC50 (furin [5]; IC50 #1, TGFβ substrate, replicate #1): 207 nM; IC50 (furin [5]; IC50 #2, TGFβ substrate, replicate #2): 64.2 nM; IC50 (furin [5]; IC50 #3, TGFβ substrate, replicate #3): 184 nM; IC50 (furin [5]; IC50 Mean ± SD, TGFβ-derived substrate 2.5 µM, 0.02 nM furin): 152 ± 77 nM
CC(=O)NCC1CCN(Cc2cc(Oc3cnc(N4CCN(CCC(=O)O)CC4)nc3)nc(-c3cc(Cl)cc(Cl)c3)c2)CC1 [Inhibitor 3]	1.8 nM	0.16 nM	10 nM	comparably high	68.7 °C	68.5 °C	68.6 °C	10.9 °C	3.1 ± 1.6 nM	2.76 nM	5.07 nM	1.31 nM	IC50 (furin [7]; IC50 #1): 0.5 nM; IC50 (furin [7]; IC50 #2): 1 nM; IC50 (furin [7]; IC50 Mean): 0.8 nM; koff (furin [8]; 25°C, single-cycle kinetic): 0.00031 s⁻¹; kon (furin [8]; 25°C, single-cycle kinetic): 96000 M⁻¹ s⁻¹; residence time (furin [8]): 53.7 min; Total TGFβ production in the lung reduced by [4, 15]: 86%; IC50 (furin [5]; [12]): 2 nM; IC50 (furin [5]; [13]): 2.3 nM; IC50 (furin [5]; [14]): 1.2 nM
